Results as given in ChEMBL document CHEMBL4364352, “Inhibitors of KRAS May Potentially Provide Effective Cancer Treatment” (ACS Med Chem Lett, 2019).

What was measured:
GTPase KRas [1] = target: T1, GTPase KRas (Homo sapiens, UniProt P01116, G12C); experiment: Inhibition of KRAS G12C mutant in human MIAPaCa2 cells assessed as increase in accumulation of GDP bound KRAS G12C mutant protein incubated for 6 hrs; format: cell-based
GTPase KRas [2] = target: T1, GTPase KRas; experiment: Inhibition of KRAS G12C mutant in human NCI-H358 cells assessed as increase in accumulation of GDP bound KRAS G12C mutant protein incubated for 6 hrs; format: cell-based

T1 sequence (P01116 whole entry G12C): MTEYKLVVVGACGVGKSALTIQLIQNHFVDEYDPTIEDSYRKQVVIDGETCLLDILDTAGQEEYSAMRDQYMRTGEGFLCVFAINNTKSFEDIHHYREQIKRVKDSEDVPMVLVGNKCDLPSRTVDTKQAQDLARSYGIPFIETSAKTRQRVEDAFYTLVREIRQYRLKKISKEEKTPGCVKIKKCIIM

SMILES	IC50 (GTPase KRas [1])	IC50 (GTPase KRas [2])
C=CC(=O)N1CCN(c2ncnc3c2CCC(c2c(C)ccc4[nH]ncc24)C3)[C@@H](C)C1 (stereo partly drawn)	4860 nM	–
C=CC(=O)N1CCN(c2nc(OC[C@H]3CCCN3C)nc3c2C[C@@H](C)[C@H](c2c(C)ccc4[nH]ncc24)C3)CC1	236 nM	129 nM
